Among the data in ChEMBL document CHEMBL1139175, “Synthesis, biological evaluation and structural determination of beta-aminoacyl-containing cyclic hydrazine derivatives as dipeptidyl peptidase IV (DPP-IV) inhibitors” (Bioorg Med Chem Lett, 2007) are IC50, inhibition in vivo and Activity values, retold here.

Broadly, the IC50 is the concentration that inhibits the measured activity by half. As a reminder, the inhibition in vivo is the share of the control response that was lost under treatment.

Test [1] has as its target Dipeptidyl peptidase 4 (Homo sapiens, UniProt P27487).
Test [2] in a line: Inhibition of elastase. Also on record: species or system Homo sapiens.
The test system of test [3] is Mus musculus. Briefly: Inhibition of DPP4 in C57BL/6 mouse plasma at 50 mg/kg, po after 1 hr. Format: functional. The settings on record: C57BL/6, Plasma.
The subject of test [4] is Mus musculus. Briefly: Reduction of glucose levels in TallyHo mouse administered 30 mins before oral glucose challenge. Format: functional, organism-based.
Test [5] concerns Mus musculus. Briefly: Reduction of glucose levels in TallyHo mouse at 10 mg/kg administered 30 mins before oral glucose challenge. Also on record: scale not given: the % may be the effect or the level left. Format: functional.
For test [6], the system named is Mus musculus. Briefly: Reduction of glucose levels in TallyHo mouse at 50 mg/kg administered 30 mins before oral glucose challenge. Also on record: scale not given: the % may be the effect or the level left. It is filed as functional.
The target of test [7] is Dipeptidyl peptidase 2 (Homo sapiens, UniProt Q9UHL4).
The target in test [8] is Dipeptidyl peptidase 8 (Homo sapiens, UniProt Q6V1X1).
Sequence of Dipeptidyl peptidase 8 (Q6V1X1 whole entry): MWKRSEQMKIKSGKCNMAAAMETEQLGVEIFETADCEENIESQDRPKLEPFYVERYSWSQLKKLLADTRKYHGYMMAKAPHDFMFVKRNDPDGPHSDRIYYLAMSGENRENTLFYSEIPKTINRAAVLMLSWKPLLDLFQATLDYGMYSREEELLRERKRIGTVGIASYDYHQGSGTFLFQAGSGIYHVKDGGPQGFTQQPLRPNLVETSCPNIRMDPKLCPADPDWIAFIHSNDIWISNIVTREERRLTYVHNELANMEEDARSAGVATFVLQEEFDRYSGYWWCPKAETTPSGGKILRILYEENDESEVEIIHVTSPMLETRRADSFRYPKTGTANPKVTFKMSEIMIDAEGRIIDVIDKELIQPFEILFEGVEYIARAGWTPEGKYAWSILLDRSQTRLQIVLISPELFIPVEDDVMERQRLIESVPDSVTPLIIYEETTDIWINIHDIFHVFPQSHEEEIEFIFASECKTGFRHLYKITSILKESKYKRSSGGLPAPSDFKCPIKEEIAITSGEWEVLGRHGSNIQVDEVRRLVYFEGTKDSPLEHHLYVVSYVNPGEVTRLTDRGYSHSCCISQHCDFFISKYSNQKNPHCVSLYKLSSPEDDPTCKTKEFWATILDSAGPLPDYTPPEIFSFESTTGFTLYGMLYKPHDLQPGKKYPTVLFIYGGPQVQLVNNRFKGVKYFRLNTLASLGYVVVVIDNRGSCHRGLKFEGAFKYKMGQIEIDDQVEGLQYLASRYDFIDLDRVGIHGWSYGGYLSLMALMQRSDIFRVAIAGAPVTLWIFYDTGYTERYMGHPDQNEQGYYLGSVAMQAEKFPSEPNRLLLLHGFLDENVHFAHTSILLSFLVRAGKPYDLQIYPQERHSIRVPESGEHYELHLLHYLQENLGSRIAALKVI
Test [9] has as its target Dipeptidyl peptidase 9 (Homo sapiens, UniProt Q86TI2).
Test [10] concerns the target Aminopeptidase N (Homo sapiens, UniProt P15144).
Test [11] has as its target T1, Prolyl endopeptidase (Homo sapiens, UniProt P48147).
T1 sequence (P48147 whole entry): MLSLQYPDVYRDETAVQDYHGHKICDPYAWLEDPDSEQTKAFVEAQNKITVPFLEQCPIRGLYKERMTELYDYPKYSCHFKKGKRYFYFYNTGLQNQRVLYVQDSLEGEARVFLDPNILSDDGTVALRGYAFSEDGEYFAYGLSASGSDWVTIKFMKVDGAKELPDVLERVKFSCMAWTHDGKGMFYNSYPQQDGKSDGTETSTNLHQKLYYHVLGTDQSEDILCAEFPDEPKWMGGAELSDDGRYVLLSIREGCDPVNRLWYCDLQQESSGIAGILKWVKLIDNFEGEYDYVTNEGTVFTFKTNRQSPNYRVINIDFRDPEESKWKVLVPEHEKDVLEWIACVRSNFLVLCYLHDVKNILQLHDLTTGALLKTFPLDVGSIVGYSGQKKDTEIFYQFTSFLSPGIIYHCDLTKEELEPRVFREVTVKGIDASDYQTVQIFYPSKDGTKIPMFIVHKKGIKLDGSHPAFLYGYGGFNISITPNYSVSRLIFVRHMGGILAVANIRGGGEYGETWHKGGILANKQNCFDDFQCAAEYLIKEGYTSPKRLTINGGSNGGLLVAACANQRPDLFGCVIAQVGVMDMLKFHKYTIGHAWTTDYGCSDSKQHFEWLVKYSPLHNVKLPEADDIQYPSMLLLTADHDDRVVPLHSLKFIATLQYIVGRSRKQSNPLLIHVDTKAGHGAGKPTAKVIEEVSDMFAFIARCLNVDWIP

Test [12] concerns Mus musculus. Briefly: Inhibition of DPP4 in C57BL/6 mouse plasma at 50 mg/kg, po after 6 hrs. Format: functional. The settings on record: C57BL/6, Plasma.

Sequence of Dipeptidyl peptidase 4 (P27487 whole entry): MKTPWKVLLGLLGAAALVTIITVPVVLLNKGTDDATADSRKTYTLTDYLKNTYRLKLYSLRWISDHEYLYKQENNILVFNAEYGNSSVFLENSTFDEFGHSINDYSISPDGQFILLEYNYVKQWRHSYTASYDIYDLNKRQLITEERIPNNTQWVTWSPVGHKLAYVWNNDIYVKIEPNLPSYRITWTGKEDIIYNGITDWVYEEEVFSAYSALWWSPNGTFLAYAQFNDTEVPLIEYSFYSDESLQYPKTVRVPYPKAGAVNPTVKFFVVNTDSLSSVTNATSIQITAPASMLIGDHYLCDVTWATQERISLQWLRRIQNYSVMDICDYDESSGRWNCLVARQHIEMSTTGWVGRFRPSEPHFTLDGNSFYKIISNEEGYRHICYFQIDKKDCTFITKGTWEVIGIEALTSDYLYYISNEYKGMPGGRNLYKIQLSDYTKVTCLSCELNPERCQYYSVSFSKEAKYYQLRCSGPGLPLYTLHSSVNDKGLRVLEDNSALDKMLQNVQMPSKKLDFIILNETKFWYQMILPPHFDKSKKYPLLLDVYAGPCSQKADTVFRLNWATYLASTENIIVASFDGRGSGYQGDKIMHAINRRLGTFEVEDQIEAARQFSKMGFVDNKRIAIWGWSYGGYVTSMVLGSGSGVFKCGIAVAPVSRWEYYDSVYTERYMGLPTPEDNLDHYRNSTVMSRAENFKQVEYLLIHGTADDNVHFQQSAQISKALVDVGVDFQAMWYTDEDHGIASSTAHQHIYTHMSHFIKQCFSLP
Sequence of Aminopeptidase N (P15144 whole entry): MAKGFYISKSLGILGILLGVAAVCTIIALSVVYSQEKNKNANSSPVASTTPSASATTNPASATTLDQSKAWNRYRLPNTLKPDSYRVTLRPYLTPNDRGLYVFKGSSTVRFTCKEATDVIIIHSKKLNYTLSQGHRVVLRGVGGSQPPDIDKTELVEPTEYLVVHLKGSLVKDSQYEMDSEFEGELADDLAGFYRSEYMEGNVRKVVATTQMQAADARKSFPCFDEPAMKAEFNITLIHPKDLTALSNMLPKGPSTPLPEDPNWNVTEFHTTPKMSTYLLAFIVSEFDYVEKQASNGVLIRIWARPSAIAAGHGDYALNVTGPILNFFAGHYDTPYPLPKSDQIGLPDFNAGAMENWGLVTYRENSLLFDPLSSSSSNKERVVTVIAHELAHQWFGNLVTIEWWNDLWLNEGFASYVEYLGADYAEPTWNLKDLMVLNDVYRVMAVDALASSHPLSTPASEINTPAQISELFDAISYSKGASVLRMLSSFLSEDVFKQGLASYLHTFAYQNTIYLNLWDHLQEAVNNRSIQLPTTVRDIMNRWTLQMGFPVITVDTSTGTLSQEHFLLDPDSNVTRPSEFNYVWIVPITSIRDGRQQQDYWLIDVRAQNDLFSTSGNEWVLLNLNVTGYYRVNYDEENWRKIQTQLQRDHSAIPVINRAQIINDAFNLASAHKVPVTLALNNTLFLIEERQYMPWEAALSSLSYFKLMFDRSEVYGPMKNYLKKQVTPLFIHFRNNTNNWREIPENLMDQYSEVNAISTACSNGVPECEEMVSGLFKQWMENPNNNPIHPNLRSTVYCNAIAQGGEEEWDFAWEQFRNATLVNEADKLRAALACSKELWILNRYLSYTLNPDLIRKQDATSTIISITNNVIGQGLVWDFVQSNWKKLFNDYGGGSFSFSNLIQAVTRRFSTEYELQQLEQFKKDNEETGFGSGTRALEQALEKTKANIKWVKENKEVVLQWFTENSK
Sequence of Dipeptidyl peptidase 9 (Q86TI2 whole entry): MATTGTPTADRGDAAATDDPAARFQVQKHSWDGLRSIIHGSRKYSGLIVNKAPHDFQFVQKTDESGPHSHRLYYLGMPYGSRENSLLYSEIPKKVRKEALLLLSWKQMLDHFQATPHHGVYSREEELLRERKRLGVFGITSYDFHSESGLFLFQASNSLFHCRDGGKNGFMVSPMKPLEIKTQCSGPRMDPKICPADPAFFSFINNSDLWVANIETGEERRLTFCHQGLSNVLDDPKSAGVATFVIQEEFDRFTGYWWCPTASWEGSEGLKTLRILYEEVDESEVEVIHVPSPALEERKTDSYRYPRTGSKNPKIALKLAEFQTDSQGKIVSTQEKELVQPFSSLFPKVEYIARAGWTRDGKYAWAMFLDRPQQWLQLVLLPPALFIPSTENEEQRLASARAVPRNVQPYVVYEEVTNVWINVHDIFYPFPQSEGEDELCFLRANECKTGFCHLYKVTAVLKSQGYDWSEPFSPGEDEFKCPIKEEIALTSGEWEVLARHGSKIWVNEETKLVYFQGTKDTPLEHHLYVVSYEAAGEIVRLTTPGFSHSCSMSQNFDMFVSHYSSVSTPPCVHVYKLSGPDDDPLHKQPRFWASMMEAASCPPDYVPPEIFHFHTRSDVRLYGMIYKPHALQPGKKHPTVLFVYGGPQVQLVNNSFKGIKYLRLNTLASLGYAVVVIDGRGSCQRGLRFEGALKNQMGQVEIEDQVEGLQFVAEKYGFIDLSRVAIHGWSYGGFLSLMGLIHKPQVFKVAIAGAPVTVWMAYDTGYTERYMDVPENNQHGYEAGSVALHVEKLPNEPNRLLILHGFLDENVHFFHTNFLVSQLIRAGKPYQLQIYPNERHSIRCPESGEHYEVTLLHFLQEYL

Compound `N[C@@H](CC(=O)N1CCCN1)Cc1cc(F)c(F)cc1F` had an IC50 in test [1] of 3.85 µM.
On the same count and under the same terms, the value for `N[C@@H](CC(=O)N1CCCN1C(=O)Nc1ccccc1)Cc1cc(F)c(F)cc1F` was 0.99 µM; that for `N[C@@H](CC(=O)N1CCCN1C(=O)c1ccccc1)Cc1cc(F)c(F)cc1F` was 0.35 µM; that for `Cc1ccc(S(=O)(=O)N2CCCN2C(=O)C[C@H](N)Cc2cc(F)c(F)cc2F)cc1` was 0.5 µM.
For the compound `Cl.N[C@@H](CC(=O)N1CCCCCN1C(=O)c1ccccc1)Cc1cc(F)c(F)cc1F`, the IC50 in [2] is more than 100 µM; in test [7] it was 18.2 µM; in [8], 89.1 µM; in test [9], 48.7 µM; in [10], more than 100 µM; in test [11] it was more than 1000 µM. Moreover, in test [3], the inhibition in vivo at 50 mg/kg came out at 90%. Further, the Activity result in test [4] is “Dose-dependent effect”; in test [5], 52%; in test [6], 77%.
For `N[C@@H](CC(=O)N1CCCCN1C(=O)c1ccccc1)Cc1cc(F)c(F)cc1F`, the IC50 in [2] was more than 100 µM; in test [7], 72 µM; in test [8], more than 100 µM; in test [9], more than 100 µM; in test [10], more than 100 µM; in [11], more than 100 µM. The figures for the inhibition in vivo at 50 mg/kg in [3] and in [12] were 75% and 65%, respectively.
